Results from patent US10597388B2, “Pyridazinone herbicides” (FMC CORPORATION, priority 2014, dated 2020).

How the values were obtained:
Test in all cases: Test E greenhouse herbicide test, pre- and postemergence
Type in all cases: in vivo
Conditions in all cases: Postemergence
[1] = test system: Italian ryegrass (Lolium multiflorum)
How it was run: (§1)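 Pre- and postemergence sprays, same solvent–surfactant formulation. Substrate: silt loam (pre), peat-based mix (post, 1–4 leaf, 2–18 cm). Readout: visual control rating 0–100 against controls at 14–21 d.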

[2] = test system: barnyardgrass (Echinochloa crus-galli)
How it was run: as §1

[3] = test system: dayflower (Virginia (VA) dayflower, Commelina virginica)
How it was run: as §1

[4] = test system: field bindweed (Convolvulus arvensis)
How it was run: as §1

[5] = test system: horseweed (Conyza canadensis)
How it was run: as §1

[6] = test system: waterhemp (common waterhemp, Amaranthus rudis)
How it was run: as §1

[7] = 62 g ai/ha, scale 0 to 100 (0 no effect, 100 complete control)
[8] = 125 g ai/ha, scale 0 to 100 (0 no effect, 100 complete control)
[9] = 16 g ai/ha, visual, scale 0 no effect to 100 complete control
[10] = 31 g ai/ha, visual, scale 0 no effect to 100 complete control
[11] = 250 g ai/ha, scale 0 to 100 (0 no effect, 100 complete control)

Structure (SMILES) | Plant response rating, Ryegrass, Italian [1, 7] | Plant response rating, Ryegrass, Italian [1, 8] | Plant response rating, Ryegrass, Italian [1, 10] | Plant response rating, Barnyardgrass [2, 7] | Plant response rating, Barnyardgrass [2, 8] | Plant response rating, Barnyardgrass [2, 10] | Plant response rating, Dayflower, VA [3, 7] | Plant response rating, Dayflower, VA [3, 8] | Plant response rating, Dayflower, VA [3, 10] | Plant response rating, Field Bindweed [4, 7] | Plant response rating, Field Bindweed [4, 8] | Plant response rating, Field Bindweed [4, 10] | Plant response rating, Horseweed [5, 7] | Plant response rating, Horseweed [5, 8] | Plant response rating, Horseweed [5, 10] | Plant response rating, Waterhemp [6, 8] | Plant response rating, Waterhemp [6, 10] | Plant response rating, Ryegrass, Italian [1, 11] | Plant response rating, Barnyardgrass [2, 11] | Plant response rating, Dayflower, VA [3, 11] | other results
CC(=O)Oc1c(C)nn(C)c(=O)c1-c1ccc(F)c2ccccc12 [Compound 90] | 85 | 85 | 80 | 40 | 50 | 30 | 80 | 90 | 60 | 90 | 100 | 80 | 75 | 70 | 70 | 90 | 70 |  |  |  | Plant response rating, Ryegrass, Italian [1, 9]: 75; Plant response rating, Barnyardgrass [2, 9]: 30; Plant response rating, Dayflower, VA [3, 9]: 40; Plant response rating, Field Bindweed [4, 9]: 60; Plant response rating, Horseweed [5, 9]: 50; Plant response rating, Waterhemp [6, 9]: 50
COc1nn(C)c(=O)c(-c2c(C)sc3ccc(Cl)cc23)c1O [Compound 100] | 60 | 70 | 50 | 40 | 30 | 30 | 0 | 0 | 0 | 80 | 90 | 75 | 70 | 75 | 35 |  | 80 | 85 | 50 | 0 | Plant response rating, Field Bindweed [4, 11]: 95; Plant response rating, Horseweed [5, 11]: 80; Plant response rating, Waterhemp [6, 11]: 90
CSCC(=O)Oc1c(C)nn(C)c(=O)c1-c1cccc2ccccc12 [Compound 171] | 75 | 85 | 65 | 45 | 50 | 40 | 50 | 70 | 40 | 85 | 100 | 70 | 60 | 70 | 50 | 85 | 80 | 90 | 50 | 90 | Plant response rating, Field Bindweed [4, 11]: 100; Plant response rating, Horseweed [5, 11]: 60; Plant response rating, Waterhemp [6, 11]: 90
